Where a name gives a salt, the structure may show the parent alone.

The target of the first assay is Peptide deformylase (Escherichia coli) (UniProt P0A6K3). In words: Compound was evaluated for inhibition of peptide deformylase, PDF.Ni of Escherichia coli.
Sequence of Peptide deformylase (Escherichia coli) (P0A6K3 whole entry, looked up): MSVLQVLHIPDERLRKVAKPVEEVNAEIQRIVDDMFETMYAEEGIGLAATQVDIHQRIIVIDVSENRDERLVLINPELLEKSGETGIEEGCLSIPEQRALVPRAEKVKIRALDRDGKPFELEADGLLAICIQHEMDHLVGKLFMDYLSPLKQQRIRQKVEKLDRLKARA
With `CCCCC(CS)C(=O)NC(CCCNC(=N)N)C(=O)OC` (stereo not given) [5-Guanidino-2-(2-mercaptomethyl-hexanoylamino)-pentanoic acid methyl ester; TFA], affinity was put at a Ki of 2500 nM.

For another assay the target is unchanged. The assay is described as above. The source holds these as a separate data set.
As for `CCCC[C@H](CS)C(=O)N[C@@H](CCCCN)C(=O)Nc1ccc([N+](=O)[O-])cc1` [(S)-2-Mercaptomethyl-hexanoic acid [(S)-5-amino-1-(4-nitro-phenylcarbamoyl)-pentyl]-amide], the affinity corresponds to a Ki of 19 nM. This counts as double-digit nanomolar.

For the next assay the target is unchanged. Described as above. The source holds these as a separate data set.
Regarding `CCCC[C@H](CN(O)C(N)=O)C(=O)N[C@H](C(=O)N(C)C)C(C)(C)C` [(2R)-2-{[(aminocarbonyl)(hydroxy)amino]methyl}-N-{(1S)-1-[(dimethylamino)carbonyl]-(2,2-dimethyl)-propyl}hexanamide], the IC50 (commonly the concentration at which inhibition is half-maximal) is > 1000 nM.

With `CCCCC(CP(=O)(O)O)C(=O)N[C@H](C(=O)N(C)C)C(C)(C)C` (stereo partly drawn) [[2-((S)-1-Dimethylcarbamoyl-2,2-dimethyl-propylcarbamoyl)-hexyl]-phosphonic acid], the IC50 is > 1000 nM.

For the compound `CCCC[C@H](CNC=O)C(=O)N[C@H](C(=O)N(C)C)C(C)(C)C` [(R)-2-Formylaminomethyl-hexanoic acid ((S)-1-dimethylcarbamoyl-2,2-dimethyl-propyl)-amide], the IC50 was > 1000 nM.

`CCCC[C@H](CC(=O)NO)C(=O)N[C@H](C(=O)N(C)C)C(C)(C)C` [(R)-2-Butyl-N*1*-((S)-1-dimethylcarbamoyl-2,2-dimethyl-propyl)-N*4*-hydroxy-succinamide] registered a 50% inhibitory concentration (IC50) of 1 nM.

Turning to `CCCC[C@H](NCC(=O)O)C(=O)N[C@H](C(=O)N(C)C)C(C)(C)C` [[(S)-1-((S)-1-Dimethylcarbamoyl-2,2-dimethyl-propylcarbamoyl)-pentylamino]-acetic acid], the IC50 was > 1000 nM.

For the compound `CCCCC(C[PH](=O)O)C(=O)N[C@H](C(=O)N(C)C)C(C)(C)C` (stereo partly drawn) [[2-((S)-1-Dimethylcarbamoyl-2,2-dimethyl-propylcarbamoyl)-hexyl]-phosphinic acid], the IC50 is > 1000 nM.

As for `CCCC[C@H](CC(=O)NN)C(=O)N[C@H](C(=O)N(C)C)C(C)(C)C` [(R)-2-Hydrazinocarbonylmethyl-hexanoic acid ((S)-1-dimethylcarbamoyl-2,2-dimethyl-propyl)-amide], the concentration for half-maximal inhibition (IC50) is 200 nM.

Take `CCCCC(CC(=N)NO)C(=O)N[C@H](C(=O)N(C)C)C(C)(C)C` (stereo partly drawn) [(R)-2-(N-Hydroxycarbamimidoylmethyl)-hexanoic acid ((S)-1-dimethylcarbamoyl-2,2-dimethyl-propyl)-amide]: the IC50 is > 1000 nM.

These data come from BindingDB's records for doi:10.1016/s0960-894x(02)00790-4 (British Biotech Pharmaceuticals, 2002).
